The values below come from patent US6635436B2, “Methods for the screening of non-recombinant cell lines capable of expressing a single PDE4 isoenzyme and for the screening of PDE4 inhibitors” (Warner-Lambert Company, priority 1999, dated 2003).

The subject of one test is PDE4A. The experiment in a line: Semi-quantitative RT-PCR of PDE4A expression in treated human cell lines. The format is cell-based. The settings on record: control normalized to 1. The protocol: (§1) RNA was purified using Tripure™ Isolation Reagent, a single-step liquid phase separation issued from the total RNA isolation method developed by Chomczynski and Sacchi (1987). Washed and pelleted cells were resuspended at a concentration of 1×10^6 cells/ml Tripure and the total RNA extracted was quantified spectrophotometrically. RT-PCR was carried out using the commercial PCR ELISA Dig Labelling Kit. First strand cDNA was generated from 1 μg of total RNA per sample using random hexamers to prime the reverse transcription (First Strand cDNA Synthesis Kit for RT-PCR) and was directly amplified by PCR following the addition of specific primer pairs. Oligonucleotide primers were: PDE4A, 5′-[…]-3′ (SEQ ID N^o1) and 5′-[…]-3′ (SEQ ID N^o2), defining a 439-bp product; PDE4B, 5′-[…]-3′ and 5′-[…]-3′, defining a 327-bp product; PDE4C, 5′-[…]-3′ and 5′-[…]-3′ defining a 331-bp product; PDE4D, 5′-[…]-3′ and 5′-[…]-3′, defining a 339-bp product. The 5′-biotin-labelled capture probes used for the detection of PCR fragments were: 5′-[…]-3′ for PDE4A, 5′-[…]-3′ for PDE4B, 5′-[…]-3′ for PDE4C, 5′-[…]-3′ for PDE4D. Briefly, this PCR ELISA allows the specific detection of PCR products in a semi-quantitative microtiter plate format. The PCR products are labelled with digoxigenin during the amplification process (dig labelling). The labelled PCR products are analyzed by solution hybridization to a specific capture probe that is complementary to the inner part of the amplification product (dig detection). This capture probe is labelled with biotin to allow immobilization of the hybrid to a streptavidin coated microtiterplate surface. Unspecific amplification products will not hybridized to this capture probe and thus will be removed during the following washing steps; The bound hybrid is detected by an anti-digoxigenin peroxidase conjugate and by use of the calorimetric substrate ABTS. In comparison with suitable standards the color signal can be used for semi-quantitative evaluation of an amplification reaction. In our experiments the PDE4 subtypes PCR fragments amplified in the control cells (cells non treated with any of the compound tested), were our standards and the optical densities found for these PCR-fragments were normalized to 1.
(§2) All the cell lines used in this study were obtained from the European Collection of Cell Culture (ECACC). U-937, HT-29, HL-60, Jurkat, MOLT-4, HK-293, CACO2 were grown in RPMI 1640 medium supplemented with 10% (v/v) heat-inactivated calf serum at 37° C. in an humidified atmosphere of 95% air-5% CO2. […] Cells in suspension were seeded at 10^6 cells/ml and adherent ones were used when confluent. After the required incubation times, 10^6 cells were used for mRNA extraction and 2.5×10^8 for proteins extraction.
(§3) The control cells received 1% DMSO for 2 hours or 3 days. After treated, the cells were washed and prepared for mRNA extraction as described in the Materials and Methods section. PCR fragments were quantified by semi-quantitative PCR: The expression of the subtypes in control cells was normalized to 1 to allow expression of the data found in the treated cells as an x-fold increase or decrease expression of each subtype in comparison to the control value.
(§4) The expression of the subtypes in control cells was normalized to 1 to be able to express the data found in the treated cells as an x-fold increase or decrease expression of each subtype in comparison to the control value. The results obtained are summarised in table 2 and here again, none of the treatment used was able to induce the expression of a C subtype.

A further test concerns PDE 4D3. Briefly: Semi-quantitative RT-PCR of PDE4D3 expression in treated human cell lines. The format is cell-based. Conditions: control normalized to 1. On the procedure:
as §1, §2, §3, §4

For another test, the system named is PDE4D. The experiment in a line: Semi-quantitative RT-PCR of PDE4D expression in treated human cell lines. The format is cell-based. The settings on record: control normalized to 1. The protocol: as §1, §2, §3, §4
A further test has as its system PDE4B. The experiment in a line: Semi-quantitative RT-PCR of PDE4B expression in treated human cell lines. Format: cell-based. Conditions: control normalized to 1. On the procedure: as §1, §2, §3, §4
In the next test the test system is PDE4. The experiment in a line: Chromatographic resolution and assay of PDE activities in control and PMA-treated cells. The settings on record: HL-60 cells treated with 1 μM PMA for 72 hours; control cells 0.14. The format is cell-based, human. On the procedure: as §2
The adherent cells were disrupted by trypsinisation and along with the non-adherent cells were washed carefully at least twice with sterile PBS and counted. […]
Phosphodiesterase activities were assayed using a modification of the method described by Smith et al. (1993) utilizing the observation that 5′-nucleotides bind very strongly to alumina while the cyclic nucleotides are readily eluted at neutral or slightly alkaline pH. […] The separated [^3H]cAMP was back-corrected for recovery using the separated and non-separated ^14C values and expressed as a fraction of the total [^3H]cAMP to give the amount of substrate hydrolyzed.
These studies were conducted originally to set up PDE4 subtype cellular assays, for this reason the cell lines that were expressing either a single or majority of a single subtype after the different treatments, were analysed for their phosphodiesterase activities. […]

On to `C[C@@H]1C[C@H]2[C@@H]3CCC4=CC(=O)C=C[C@]4(C)[C@@]3(F)[C@@H](O)C[C@]2(C)[C@@]1(O)C(=O)CO` [Dexamethasone, dexamethasone], for which the “PDE4 subtype A x-fold change in expression vs control (number in brackets)” value (from here on “PDE4 subtype A x-fold change”) in the test on PDE4A (CACO-2 cells) is recorded as 1 fold; in the test on PDE4A (HK-293 cells) it was 1 fold; in the test with PDE4A (HL-60 cells), 1 fold; in the test with PDE4A (HT-29 cells), 1 fold; in the test on PDE4A (Jurkat cells), 1 fold; with PDE4A (Molt-4 cells) it was 2 fold. Further, the “PDE4 subtype A x-fold change” value with PDE4A (Molt-4 cells, listed as dexamethasone) was “+2 fold”. For the same compound, the “PDE4 D3 x-fold change in expression vs control (number in brackets)” value with PDE 4D3 (CACO-2 cells), in the test with PDE 4D3 (HK-293 cells), with PDE 4D3 (HL-60 cells) and in the test with PDE 4D3 (HT-29 cells) was 1 fold throughout. Further, the “PDE4 subtype D x-fold change in expression vs control (number in brackets)” value in the test with PDE4D (CACO-2 cells) was determined as 1 fold; with PDE4D (HK-293 cells) it was 1 fold; in the test with PDE4D (HL-60 cells) it was 1 fold; in the test on PDE4D (HT-29 cells) it was 1 fold; with PDE4D (Jurkat cells), 1 fold; in the test with PDE4D (Molt-4 cells) it was 1.1 fold. The “PDE4 subtype B x-fold change in expression vs control (number in brackets)” value in the test on PDE4B (HK-293 cells) was −1.5 fold; in the test on PDE4B (HL-60 cells) it was −1.2 fold; in the test on PDE4B (Jurkat cells), 1 fold; with PDE4B (Molt-4 cells) it was 1 fold.
As to `CCCCCCCCCCCCCC(=O)O[C@@H]1[C@@H](C)[C@@]2(O)[C@@H](C=C(CO)C[C@]3(O)C(=O)C(C)=C[C@@H]23)[C@@H]2C(C)(C)[C@]12OC(C)=O` [PMA, phorbol myristate acetate], the “PDE4 subtype A x-fold change” value was 1 fold in the test on PDE4A (CACO-2 cells); 1 fold with PDE4A (HK-293 cells); 1.5 fold in the test with PDE4A (HT-29 cells); 1 fold in the test on PDE4A (Jurkat cells); −1.5 fold with PDE4A (Molt-4 cells). Further, the “PDE4 D3 x-fold change in expression vs control (number in brackets)” value was −1.1 fold in the test with PDE 4D3 (CACO-2 cells), 1 fold in the test with PDE 4D3 (HK-293 cells) and 1 fold in the test with PDE 4D3 (HT-29 cells). Further, the “maximum PDE4 activity” value with PDE4 turned out to be 0.9 pmol AMP formed/min/μl. In addition, the “PDE4 subtype D x-fold change in expression vs control (number in brackets)” value in the test on PDE4D (HL-60 cells) is recorded as −14.5 fold; with PDE4D (HT-29 cells), 1.8 fold; in the test with PDE4D (Jurkat cells), −1.9 fold; in the test on PDE4D (Molt-4 cells), 1.1 fold. For the same compound, the “PDE4 subtype B x-fold change in expression vs control (number in brackets)” value in the test on PDE4B (HK-293 cells) is given as 1 fold; in the test with PDE4B (HL-60 cells) it was −12.2 fold; in the test with PDE4B (Jurkat cells) it was −2 fold; with PDE4B (Molt-4 cells), 1 fold.
